Columns and labels:
[1] = test system: MDA-MB-231 breast cancer cells co-injected with Cav-1-deficient stromal fibroblasts; test: Human tumor xenograft: nude mice co-injected with MDA-MB-231 cells and Cav-1-deficient stromal fibroblasts, treated with glycolysis inhibitors; format: in vivo; details: given individually, dosage of 200 mg/kg
Procedure: Treatment with Glycolysis Inhibitors Functionally Blocks Cancer-Associated Fibroblast Induced Breast Cancer Tumor Growth. […] Mice co-injected with Cav-1-deficient stromal fibroblasts and MDA-MB-231 breast cancer cells were treated with glycolysis inhibitors. The efficacy of two well-established glycolysis inhibitors, namely 2-DG (2-deoxy-D-glucose) and DCA (dichloro-acetate), individually or in combination were tested.
To provide additional experimental validation for the idea that an absence of stromal Cav-1 promotes breast cancer tumor growth and angiogenesis, a 2-component cell-system using xenografts in immuno-deficient female nude mice was developed. Briefly, the flanks of nude mice were injected with a mixture of 1) MDA-MB-231 cells (a highly aggressive human breast cancer cell line; 1.0×10-6 cells) and 2) stromal fibroblasts, derived from either WT or Cav-1 (−/−) null mice (0.3×10-6 cells). After 3 weeks, nude mice were sacrificed and breast cancer-derived tumors were subjected to analysis for growth (tumor weight and volume measurements) and immuno-histochemistry with markers of angiogenesis, such as CD31 (a.k.a, PECAM1).
In this two-component system, nude mice are co-injected with i) human breast cancer ceils (MDA-MB-231), and ii) stromal fibroblasts (WT versus Cav-1 (−/−) deficient). […]

[2] = test system: PD-ECGF/TP transfected cells; details: transfected compared with untransfected wild-type cells; Haraguchi (1993); cited from earlier work
neovascularization = details: Oikawa (1988); cited from earlier work
breast cancer patients = test: Progression-free survival of breast cancer patients (tissue microarray cohort) by stromal Cav-1 and tamoxifen use; format: in vivo, human; details: Tamoxifen use Yes vs No (ref); adjusted for T stage, N stage, Cav-1 score
Procedure: Breast tissues for tissue microarray construction were obtained from the Surgical Pathology files at the University of Michigan with Institutional Review Board (IRB) approval. The TMA contained tissues derived from 154 largely consecutive patients with invasive carcinomas of the breast, with follow-up information treated at the University of Michigan from 1987-1991. Clinical and pathological variables were determined following well-established criteria. All invasive carcinomas were graded according to the method described by Elston and Ellis 17; Lymphovascular Invasion (LV1) was classified as either present or absent. […]
Cav-1 expression in the tumor stroma was assessed by employing a standard immuno-peroxidase method (DakoCytornation LSAB2 System-HRP, Carpinteria, Calif.), using rabbit polyclonal antl-Cav-1 TgG (N-20; directed against Ntenninal residues 2-21 of human Cav-1; Santa Cruz Biotechnology, Santa Cruz, Calif.; dilution 1:500). The staining was scored semi-quantitatively as negative (0; no staining), weak (1; either diffuse weak staining or strong staining in less than 30% of stromal cells per core) and strong (2; defined as strong staining of 30% or more of the stromal cells). […]
For each patient, the date of breast cancer diagnosis, date of last follow-up, vital status at last follow-up, causes of death (breast cancer or other), and breast cancer recurrence, were recorded. […]

[3] = test system: Cav-1 in stromal fibroblasts co-cultured with MCF-7 cells; test: Co-culture of MCF-7 breast cancer cells with normal human fibroblasts: Cav-1 down-regulation; format: cell-based; details: co-culture with MCF-7 cells
Source text: Using this system, it was observed that within 5 days of co-culture MCF-7 cells down-regulate the expression of Cav-1 in adjacent stromal fibroblasts. This occurs via the degradation of Cav-1 in lysosomal structures, and can be inhibited by chloroquine, an anti-lysomal agent. Most importantly, MCF-7 cells induce oxidative stress in the adjacent fibroblasts via the over-production of reactive oxygen species (ROS). ROS, in turn, is known to stabilize and activate certain transcription factors, such as NFkB and HIF. NFkB- and HIF-are the master regulators of “inflammation” and “hypoxia/aerobic glycolysis” in the tumor microenvironment. Thus, in order to detect the activation of NFkB and HIF only in the fibroblast cell population, two different fibroblast cell lines engineered to express either a NFkB-luciferase or HIF-luciferase transcriptional reporter were used. […] As such, NFkB is activated first, while HIF is activated on day 4 and day 5 of coculture, coincident with Cav-1 down-regulation. Thus, cancer cells induce the Warburg effect in adjacent stromal fibroblasts via the activation of NFkB and HIF-target genes, leading to inflammation and aerobic glycolysis. These findings provide a mechanistic basis for the “Reverse Warburg Effect”, and a new high-throughput drug-screening assay for the identification of novel compounds that block the “Reverse Warburg Effect”.

SMILES: O=CC[C@@H](O)[C@H](O)[C@H](O)CO [2-DG, 2-deoxy-D-glucose]
- effect on tumor growth [1]: no effect

SMILES: C[C@H]1O[C@@H](n2cc(F)c(=O)[nH]c2=O)[C@H](O)[C@@H]1O [5′DFUR, 5′-deoxy-5-fluorouridine]
- antitumor effect [2]: dramatic enhancement of antitumor effect

SMILES: O=C(O)C(Cl)Cl [DCA, dichloro-acetate]
- effect on tumor growth [1]: no effect

SMILES: CC(=O)O[C@]1(C(C)=O)CC[C@H]2[C@@H]3C[C@H](C)C4=CC(=O)CC[C@]4(C)[C@H]3CC[C@@]21C [MPA, medroxyprogesterone acetate]
- neovascularization (neovascularization): potently inhibited

SMILES: CC/C(=C(\c1ccccc1)c1ccc(OCCN(C)C)cc1)c1ccccc1 [Tamoxifen]
- Cox regression of Progression-Free Survival (PFS): Coefficient (breast cancer patients): −0.476

SMILES: CCN(CC)CCCC(C)Nc1ccnc2cc(Cl)ccc12 (stereo not drawn) [chloroquine]
- degradation of Cav-1 in lysosomal structures (Cav-1 down-regulation in adjacent stromal fibroblasts) [3]: inhibited

Reference: patent US20160139132A1, “Method of Diagnosis or Prognosis of a Neoplasm Comprising Determining the Level of Expression of a Protein in Stromal Cells Adjacent to the Neoplasm” (Thomas Jefferson University, priority 2009, published 2016)
